# Results as given in patent publication US20250206758A1, “SUBSTITUTED BRIDGED RING INHIBITOR, PREPARATION METHOD THEREFOR AND APPLICATION THEREOF” (SUZHOU ZELGEN BIOPHARMACEUTICALS CO., LTD., priority 2022, published 2025).
# Where two headings read alike, the source gives them in different places.
# Key:
# AsPC-1 = test: Cell proliferation inhibition, AsPC-1 (CellTiter-Glo 3D, 7 days); type: cell-based; conditions: AsPC-1, 7 days
# Summary of the method: (§1)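 Cells exposed to compound (final DMSO 0.5%) in duplicate for 7 days at 37 °C, 5% CO2, then CellTiter-Glo 3D added with 20 min shaking and 2 h dark incubation before luminescence. Inhibition normalized to medium and blank controls; IC50, minimum and maximum inhibition from curve fits.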
# GP2D = test: Cell proliferation inhibition, GP2D (CellTiter-Glo 3D, 7 days); type: cell-based
# Summary of the method: as §1
# AGS = test: Cell proliferation inhibition, AGS (CellTiter-Glo 3D, 7 days); type: cell-based; conditions: Homo sapiens, 168 h
# Procedure: • (a) Resuscitating cells in T75 cell culture flask: • (b) When the cell confluence reaches 80-90%, subculturing the cells.
# The diluted test compound was added to a 384-well cell culture plate with a nanoliter pipetting system, and duplicate wells were set up. An equal volume of culture medium was added to the positive control group; and an equal volume of DMSO was added to the negative control group, then centrifugation was conducted at 1000 rpm for 1 min at room temperature.
# Cells were inoculated into a) 384-well culture plate, with an equal volume of cells added to the negative control group, and only an equal volume of culture medium added to the positive control group. The plate was centrifuged at 1000 rpm for 1 min at room temperature, and the final DMSO concentration of the compound was 0.5% at last. The plate was placed in a 37° C., 5% CO2 constant temperature incubator for 7 days.
# 20 μL/well of CellTiter-Glo® 3D to b) was added to 384-well cell culture plate, and the plate was shook at 320 rpm for 20 min in the dark, and incubated at room temperature in the dark for 2 hrs.
# The luminescence value was read using an Envision multi-functional microplate reader.
# The inhibition rate (IR) of the test compound was calculated using the following formula: IR (%)=(1−(RLU compound−RLU blank control)/(RLU meidum control−RLU blank control))*100%. The inhibition rates of different concentrations of compounds were calculated in Excel, and then the inhibition curves were plotted and the related parameters (including the minimum inhibition rate, maximum inhibition rate and IC50) were calculated using GraphPad Prism software.
# in vivo = conditions: male, ICR, mouse, po, 30 mg/kg
# Procedure: Male ICR mice, weighing 22-24 g, were fasted overnight and orally administered with 30 mg/kg of a solution of the compound of the present invention or the control compound [10% DMSO+60% PEG400+30% aqueous solution]. Blood was collected at 0.25, 0.5, 1.0, 2.0, 4.0, 6.0, 8.0, 12.0 and 24 h after administration of the compound of the present invention respectively, and the concentration of the compound of the present invention or the control compound in plasma was determined by LC/MS/MS.
Compound,"IC50 (AsPC-1; Homo sapiens, ASPC1, 168 h) [nM]",IC50 (GP2D; 168 h) [nM],IC50 (AGS) [nM],other results
"C#Cc1c(F)ccc2cc(O)cc(-c3ncc4c(N5C[C@H]6CC[C@@H](C5)N6)nc(OC[C@@]56CCCN5C[C@@]5(CC5(F)F)C6)nc4c3F)c12 [Example 16B-1, 4-(4-((1R,5S)-3,8-diazabicyclo[3.2.1]octan-3-yl)-2-(((1S,7a'S)-2,2-difluorodihydro-1′H,3′H-spiro[cyclopropan-1,2′-pyrrolizin]-7a′(5′H)-yl)methoxy)-8-fluoropyridino[4,3-d]pyrimidin-7-yl)-5-ethynyl-6-fluoronaphthalen-2-ol]",1.24,0.2,1.37,
N#Cc1c(N)sc2c(F)ccc(-c3ncc4c(N5CC6CCC(C5)N6)nc(OC[C@@]56CCCN5C[C@@]5(CC5(F)F)C6)nc4c3F)c12 [Example 24],62,2.5,,AUC(0-inf) (in vivo): 1270 ng·h/mL; AUC(0-t) (in vivo): 1250 ng·h/mL; Cmax (in vivo): 461 ng/mL; Tmax (in vivo): 0.5 h; half-life (in vivo): 4.74 h
"Cc1cc(N)c(F)c(-c2ncc3c(N4C[C@H]5CC[C@@H](C4)N5)nc(OC[C@@]45CCCN4C[C@@]4(CC4(F)F)C5)nc3c2F)c1C(F)(F)F [Example 26, 3-(4-((1R,5S)-3,8-diazabicyclo[3.2.1]octan-3-yl)-2-(((1S,7a'S)-2,2-difluorodihydro-1′H,3′H-spiro[cyclopropan-1,2′-pyrrolizin]-7a′(5′H)-yl)methoxy)-8-fluoropyridino[4,3-d]pyrimidin-7-yl)-2-fluoro-5-methyl-4-(trifluoromethyl)aniline]",,,,AUC(0-inf) (in vivo): 3770 ng·h/mL; AUC(0-t) (in vivo): 3380 ng·h/mL; Cmax (in vivo): 462 ng/mL; Tmax (in vivo): 0.25 h; half-life (in vivo): 6.97 h
"Nc1cc(Cl)c(C(F)(F)F)c(-c2ncc3c(N4C[C@H]5CC[C@@H](C4)N5)nc(OC[C@@]45CCCN4C[C@@]4(CC4(F)F)C5)nc3c2F)c1F [Example 34, 3-(4-((1R,5S)-3,8-diazabicyclo[3.2.1]octan-3-yl)-2-(((1S,7a'S)-2,2-difluorodihydro-1′H,3′H-spiro[cyclopropan-1,2′-pyrrolizin]-7a′(5′H)-yl)methoxy)-8-fluoropyridino[4,3-d]pyrimidin-7-yl)-5-chloro-2-fluoro-4-(trifluoromethyl)aniline]",11.1,1.03,21.5,
"Nc1cc(Cl)c(C(F)(F)F)c(-c2ncc3c(N4C[C@H]5CC[C@@H](C4)N5)nc(OC[C@@]45CCCN4C[C@@]4(CC4(F)F)C5)nc3c2F)c1Cl [Example 35, 3-(4-((1R,5S)-3,8-diazabicyclo[3.2.1]octan-3-yl)-2-(((1S,7a′S)-2,2-difluorodihydro-1′H,3′H-spiro[cyclopropan-1,2′-pyrrolizin]-7a′(5′H)-yl)methoxy)-8-fluoropyridino[4,3-d]pyrimidin-7-yl)-2,5-dichloro-4-(trifluoromethyl)aniline]",45.7,4.89,79.7,
"Nc1cc(F)c(C(F)(F)F)c(-c2ncc3c(N4C[C@H]5CC[C@@H](C4)N5)nc(OC[C@@]45CCCN4C[C@@]4(CC4(F)F)C5)nc3c2F)c1Cl [Example 36, 3-(4-((1R,5S)-3,8-diazabicyclo[3.2.1]octan-3-yl)-2-(((1S,7a'S)-2,2-difluorodihydro-1′H,3′H-spiro[cyclopropan-1,2′-pyrrolizin]-7a′(5′H)-yl)methoxy)-8-fluoropyridino[4,3-d]pyrimidin-7-yl)-2-chloro-5-fluoro-4-(trifluoromethyl)aniline]",167,20.4,298,
"Nc1cc(F)c(Cl)c(-c2ncc3c(N4C[C@H]5CC[C@@H](C4)N5)nc(OC[C@@]45CCCN4C[C@@]4(CC4(F)F)C5)nc3c2F)c1Cl [Example 37, 3-(4-((1R,5S)-3,8-diazabicyclo[3.2.1]octan-3-yl)-2-(((1S,7a'S)-2,2-difluorodihydro-1′H,3′H-spiro[cyclopropan-1,2′-pyrrolizin]-7a′(5′H)-yl)methoxy)-8-fluoropyridino[4,3-d]pyrimidin-7-yl)-2,4-dichloro-5-fluoroaniline]",> 1000,> 100,> 1000,
"Nc1cc(-c2ncc3c(N4C[C@H]5CC[C@@H](C4)N5)nc(OC[C@@]45CCCN4C[C@@]4(CC4(F)F)C5)nc3c2F)c(C(F)(F)F)c(Cl)c1F [Example 41, 5-(4-((1R,5S)-3,8-diazabicyclo[3.2.1]octan-3-yl)-2-(((1S,7a'S)-2,2-difluorodihydro-1′H,3′H-spiro[cyclopropan-1,2′-pyrrolizin]-7a′(5′H)-yl)methoxy)-8-fluoropyridino[4,3-d]pyrimidin-7-yl)-3-chloro-2-fluoro-4-(trifluoromethyl)aniline]",14.2,1.41,16.6,
"Cc1c(F)c(N)cc(-c2ncc3c(N4C[C@H]5CC[C@@H](C4)N5)nc(OC[C@@]45CCCN4C[C@@]4(CC4(F)F)C5)nc3c2F)c1C(F)(F)F [Example 42, 5-(4-((1R,5S)-3,8-diazabicyclo[3.2.1]octan-3-yl)-2-(((1S,7a'S)-2,2-difluorodihydro-1′H,3′H-spiro[cyclopropan-1,2′-pyrrolizin]-7a′(5′H)-yl)methoxy)-8-fluoropyridino[4,3-d]pyrimidin-7-yl)-2-fluoro-3-methyl-4-(trifluoromethyl)aniline]",8.83,0.68,13.9,
"N#Cc1cc(N)cc(-c2ncc3c(N4C[C@H]5CC[C@@H](C4)N5)nc(OC[C@@]45CCCN4C[C@@]4(CC4(F)F)C5)nc3c2F)c1Cl [Example 48, 3-(4-((1R,5S)-3,8-diazabicyclo[3.2.1]octan-3-yl)-2-(((1S,7a'S)-2,2-difluorodihydro-1′H,3′H-spiro[cyclopropan-1,2′-pyrrolizin]-7a′(5′H)-yl)methoxy)-8-fluoropyridino[4,3-d]pyrimidin-7-yl)-5-amino-2-chlorobenzonitrile]",779,66,,
"N#Cc1c(Cl)cc(N)cc1-c1ncc2c(N3C[C@H]4CC[C@@H](C3)N4)nc(OC[C@@]34CCCN3C[C@@]3(CC3(F)F)C4)nc2c1F [Example 49, 2-(4-((1R,5S)-3,8-diazabicyclo[3.2.1]octan-3-yl)-2-(((1S,7a'S)-2,2-difluorodihydro-1′H,3′H-spiro[cyclopropan-1,2′-pyrrolizin]-7a′(5′H)-yl)methoxy)-8-fluoropyridino[4,3-d]pyrimidin-7-yl)-4-amino-6-chlorobenzonitrile]",> 1000,24.4,,
"N#Cc1c(-c2ncc3c(N4C[C@H]5CC[C@@H](C4)N5)nc(OC[C@@]45CCCN4C[C@@]4(CC4(F)F)C5)nc3c2F)cc(N)cc1C(F)(F)F [Example 50, 2-(4-((1R,5S)-3,8-diazabicyclo[3.2.1]octan-3-yl)-2-(((1S,7a'S)-2,2-difluorodihydro-1′H,3′H-spiro[cyclopropan-1,2′-pyrrolizin]-7a′(5′H)-yl)methoxy)-8-fluoropyridino[4,3-d]pyrimidin-7-yl)-4-amino-6-(trifluoromethyl)benzonitrile]",> 1000,> 100,,
"Nc1cnc(C(F)(F)F)c(-c2ncc3c(N4C[C@H]5CC[C@@H](C4)N5)nc(OC[C@@]45CCCN4C[C@@]4(CC4(F)F)C5)nc3c2F)c1 [Example 52, 5-(4-((1R,5S)-3,8-diazabicyclo[3.2.1]octan-3-yl)-2-(((1S,7a'S)-2,2-difluorodihydro-1′H,3′H-spiro[cyclopropan-1,2′-pyrrolizin]-7a′(5′H)-yl)methoxy)-8-fluoropyridino[4,3-d]pyrimidin-7-yl)-6-(trifluoromethyl)pyridin-3-amine]",> 1000,> 100,,
"Nc1cncc(-c2ncc3c(N4C[C@H]5CC[C@@H](C4)N5)nc(OC[C@@]45CCCN4C[C@@]4(CC4(F)F)C5)nc3c2F)c1C(F)(F)F [Example 53, 5-(4-((1R,5S)-3,8-diazabicyclo[3.2.1]octan-3-yl)-2-(((1S,7a'S)-2,2-difluorodihydro-1′H,3′H-spiro[cyclopropan-1,2′-pyrrolizin]-7a′(5′H)-yl)methoxy)-8-fluoropyridino[4,3-d]pyrimidin-7-yl)-4-(trifluoromethyl)pyridin-3-amine]",896,60,,
"Cc1nc(N)cc(-c2ncc3c(N4C[C@H]5CC[C@@H](C4)N5)nc(OC[C@@]45CCCN4C[C@@]4(CC4(F)F)C5)nc3c2F)c1C(F)(F)F [Example 55, 4-(4-((1R,5S)-3,8-diazabicyclo[3.2.1]octan-3-yl)-2-(((1S,7a'S)-2,2-difluorodihydro-1′H,3′H-spiro[cyclopropan-1,2′-pyrrolizin]-7a′(5′H)-yl)methoxy)-8-fluoropyridino[4,3-d]pyrimidin-7-yl)-6-methyl-5-(trifluoromethyl)pyridin-2-amine]",56.7,6.5,,
"(1S,7a'S)-7a′-(((4-(1R,5S)-3,8-diazabicyclo[3.2.1]octan-3-yl)-7-(8-ethynyl-7-fluoronaphthol-1-yl)-8-fluoropyridino[4,3-d]pyrimidin-2-yl)oxy)methyl)-2,2-difluorodihydro-1′H,3′H-spiro[cyclopropan-1,2′-pyrrolizin] [Example 21]",,,,IC50 (AsPC-1): 19.1 nM; IC50 (GP2D): 4.92 nM
